Measurements published in PubChem BioAssay AID2060509 (Molecular Pharmacology Branch, DTP, NCI, 2025).

Test system: 485176-168-R4-J1-PDC spheroids with HUVEC/MSC, viability
Test: Anticancer human tumor 485176-168-R4-J1-PDC patient-derived pancreatic adenocarcinoma cell line growth inhibition [GQUAD]
Conditions: for IC50: curve of first compound; for viability, T/C: stronger effect = lower value
Procedure, shortened: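 Viability of tumor cells grown as complex spheroids with endothelial and stromal cells, exposed to drug combinations. Top concentration at or near clinical Cmax (else 10 microM), diluted in half-log increments.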

[1] = second compound 0.0316 µM, first compound 0.0316 µM
[2] = second compound 0.0316 µM, first compound 0.1 µM
[3] = second compound 0.0316 µM, first compound 0.316 µM
[4] = second compound 0.0316 µM, first compound 1 µM
[5] = second compound 0.0316 µM, first compound 3.16 µM
[6] = second compound 0.0316 µM, first compound 10 µM
[7] = second compound 0.1 µM, first compound 0.0316 µM
[8] = second compound 0.1 µM, first compound 0.1 µM
[9] = second compound 0.1 µM, first compound 0.316 µM
[10] = second compound 0.1 µM, first compound 1 µM
[11] = second compound 0.1 µM, first compound 3.16 µM
[12] = second compound 0.1 µM, first compound 10 µM
[13] = second compound 0.316 µM, first compound 0.0316 µM
[14] = second compound 0.316 µM, first compound 0.1 µM
[15] = second compound 0.316 µM, first compound 0.316 µM
[16] = second compound 0.316 µM, first compound 1 µM
[17] = second compound 0.316 µM, first compound 3.16 µM
[18] = second compound 0.316 µM, first compound 10 µM
[19] = second compound 1 µM, first compound 0.0316 µM
[20] = second compound 1 µM, first compound 0.1 µM
[21] = second compound 1 µM, first compound 0.316 µM
[22] = second compound 1 µM, first compound 1 µM
[23] = second compound 1 µM, first compound 3.16 µM
[24] = second compound 1 µM, first compound 10 µM
[25] = second compound 3.16 µM, first compound 0.0316 µM
[26] = second compound 3.16 µM, first compound 0.1 µM
[27] = second compound 3.16 µM, first compound 0.316 µM
[28] = second compound 3.16 µM, first compound 1 µM
[29] = second compound 3.16 µM, first compound 3.16 µM
[30] = second compound 3.16 µM, first compound 10 µM
[31] = second compound 10 µM, first compound 0.0316 µM
[32] = second compound 10 µM, first compound 0.1 µM
[33] = second compound 10 µM, first compound 0.316 µM
[34] = second compound 10 µM, first compound 1 µM
[35] = second compound 10 µM, first compound 3.16 µM
[36] = second compound 10 µM, first compound 10 µM
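Note: spheroids exposed to compounds for seven days before readout.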
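Throughout, for viability, T/C: percent viability relative to DMSO vehicle control wells as 100%.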

Compound C=CCn1c(=O)c2cnc(Nc3ccc(N4CCN(C)CC4)cc3)nc2n1-c1cccc(C(C)(C)O)n1 + CN(C)c1ccc(Nc2c3ccc(NC(=O)CCN4CCCC4)cc3nc3cc(NC(=O)CCN4CCCC4)ccc23)cc1 has an IC50 (second compound 0.0316 µM) of 554 nM, an IC50 (second compound 0.1 µM) of 544 nM and an IC50 (second compound 0.316 µM) of 344 nM. The IC50 (second compound 1 µM) was 450 nM, the IC50 (second compound 3.16 µM) was 507 nM and the IC50 (second compound 10 µM) was 459 nM. The viability, T/C [1] was 98.2%, the viability, T/C [2] was 89.9% and the viability, T/C [3] was 79.2%. It also gave a viability, T/C [4] of 19.5%, a viability, T/C [5] of 7.62% and a viability, T/C [6] of 4.64%. For the same compound, the viability, T/C [7] was 101%, the viability, T/C [8] was 88.2% and the viability, T/C [9] was 76%. It also gave a viability, T/C [10] of 21.3%, a viability, T/C [11] of 8.2% and a viability, T/C [12] of 4.88%. The viability, T/C [13] was 116%, the viability, T/C [14] was 93.7% and the viability, T/C [15] was 53.8%. The viability, T/C [16] was 17.2%, the viability, T/C [17] was 6.62% and the viability, T/C [18] was 4.69%. It also gave a viability, T/C [19] of 88.7%, a viability, T/C [20] of 84.9% and a viability, T/C [21] of 62.5%. It also gave a viability, T/C [22] of 21.5%, a viability, T/C [23] of 10.6% and a viability, T/C [24] of 4.67%. For the same compound, the viability, T/C [25] was 93.1%, the viability, T/C [26] was 92.8% and the viability, T/C [27] was 71.8%. It also gave a viability, T/C [28] of 18.2%, a viability, T/C [29] of 12.4% and a viability, T/C [30] of 4.45%. For the same compound, the viability, T/C [31] was 84.4%, the viability, T/C [32] was 75.1% and the viability, T/C [33] was 62.5%. It also gave a viability, T/C [34] of 26.4%, a viability, T/C [35] of 9.3% and a viability, T/C [36] of 6.12%.

For Nc1ccn(C2OC(CO)C(O)C2(F)F)c(=O)n1 (stereo not drawn) + Cc1[nH]c2ccc(F)cc2c1-c1nc2c3cccnc3c3ncccc3c2[nH]1, the IC50 (second compound 0.0316 µM) was 50.5 nM, the IC50 (second compound 0.1 µM) was 40 nM and the IC50 (second compound 0.316 µM) was 42.1 nM. The IC50 (second compound 1 µM) was 54.1 nM, the IC50 (second compound 3.16 µM) was 54.4 nM and the IC50 (second compound 10 µM) was 57.4 nM. It also gave a viability, T/C [1] of 71.8%, a viability, T/C [2] of 18.2% and a viability, T/C [3] of 10.3%. For the same compound, the viability, T/C [4] was 9.1%, the viability, T/C [5] was 11.2% and the viability, T/C [6] was 10.4%. It also gave a viability, T/C [7] of 56.6%, a viability, T/C [8] of 24.9% and a viability, T/C [9] of 9.79%. The viability, T/C [10] was 9.89%, the viability, T/C [11] was 11.8% and the viability, T/C [12] was 9.87%. For the same compound, the viability, T/C [13] was 58%, the viability, T/C [14] was 25.7% and the viability, T/C [15] was 12%. The viability, T/C [16] was 10.1%, the viability, T/C [17] was 9.86% and the viability, T/C [18] was 11.9%. It also gave a viability, T/C [19] of 71.3%, a viability, T/C [20] of 25.6% and a viability, T/C [21] of 9.77%. The viability, T/C [22] was 10.7%, the viability, T/C [23] was 12.2% and the viability, T/C [24] was 12.2%. It also gave a viability, T/C [25] of 69.7%, a viability, T/C [26] of 27.8% and a viability, T/C [27] of 10.8%. The viability, T/C [28] was 12.1%, the viability, T/C [29] was 11.2% and the viability, T/C [30] was 13.9%. For the same compound, the viability, T/C [31] was 71.8%, the viability, T/C [32] was 29.8% and the viability, T/C [33] was 10.8%. The viability, T/C [34] was 10.4%, the viability, T/C [35] was 10.2% and the viability, T/C [36] was 10.8%.

O=c1[nH]cc(F)c(=O)[nH]1 + Cc1cnc(CNC(=O)c2c(=O)c3ccc(N4CCCN(C)CC4)nc3n3c2sc2ccccc23)cn1 showed an IC50 (second compound 0.0316 µM) of 847 nM, an IC50 (second compound 0.1 µM) of 272 nM and an IC50 (second compound 0.316 µM) of 248 nM. The IC50 (second compound 1 µM) was 202 nM, the IC50 (second compound 3.16 µM) was < 31.6 nM and the IC50 (second compound 10 µM) was < 31.6 nM. It also gave a viability, T/C [1] of 84.7%, a viability, T/C [2] of 77.4% and a viability, T/C [3] of 66.1%. For the same compound, the viability, T/C [4] was 45.9%, the viability, T/C [5] was 43.5% and the viability, T/C [6] was 43.6%. It also gave a viability, T/C [7] of 63.3%, a viability, T/C [8] of 73.5% and a viability, T/C [9] of 47.2%. For the same compound, the viability, T/C [10] was 47.1%, the viability, T/C [11] was 46.4% and the viability, T/C [12] was 43.6%. The viability, T/C [13] was 53.8%, the viability, T/C [14] was 66.1% and the viability, T/C [15] was 47.4%. For the same compound, the viability, T/C [16] was 45.3%, the viability, T/C [17] was 35.1% and the viability, T/C [18] was 45.7%. For the same compound, the viability, T/C [19] was 50.5%, the viability, T/C [20] was 54.7% and the viability, T/C [21] was 48.3%. The viability, T/C [22] was 38.2%, the viability, T/C [23] was 36.4% and the viability, T/C [24] was 41%. It also gave a viability, T/C [25] of 40.6%, a viability, T/C [26] of 44.1% and a viability, T/C [27] of 37.2%. For the same compound, the viability, T/C [28] was 32.8%, the viability, T/C [29] was 34.5% and the viability, T/C [30] was 31.3%. It also gave a viability, T/C [31] of 41.5%, a viability, T/C [32] of 45% and a viability, T/C [33] of 33.5%. For the same compound, the viability, T/C [34] was 30.3%, the viability, T/C [35] was 34.4% and the viability, T/C [36] was 34.3%.

With Cn1ncnc1[C@H]1c2n[nH]c(=O)c3cc(F)cc(c23)N[C@@H]1c1ccc(F)cc1 + CN(C)c1ccc(Nc2c3ccc(NC(=O)CCN4CCCC4)cc3nc3cc(NC(=O)CCN4CCCC4)ccc23)cc1 the IC50 (second compound 0.0316 µM) was > 316 nM, the IC50 (second compound 0.1 µM) was > 316 nM and the IC50 (second compound 0.316 µM) was > 316 nM. The IC50 (second compound 1 µM) was > 316 nM, the IC50 (second compound 3.16 µM) was > 316 nM and the IC50 (second compound 10 µM) was > 316 nM. It also gave a viability, T/C (second compound 0.0316 µM, first compound 0.000999 µM) of 92.1%, a viability, T/C (second compound 0.0316 µM, first compound 0.00316 µM) of 91.2% and a viability, T/C (second compound 0.0316 µM, first compound 0.00999 µM) of 101%. It also gave a viability, T/C [1] of 98%, a viability, T/C (second compound 0.0316 µM, first compound 0.0999 µM) of 98.9% and a viability, T/C [3] of 92%. For the same compound, the viability, T/C (second compound 0.1 µM, first compound 0.000999 µM) was 102%, the viability, T/C (second compound 0.1 µM, first compound 0.00316 µM) was 124% and the viability, T/C (second compound 0.1 µM, first compound 0.00999 µM) was 107%. It also gave a viability, T/C [7] of 93.3%, a viability, T/C (second compound 0.1 µM, first compound 0.0999 µM) of 110% and a viability, T/C [9] of 90.8%. The viability, T/C (second compound 0.316 µM, first compound 0.000999 µM) was 101%, the viability, T/C (second compound 0.316 µM, first compound 0.00316 µM) was 97.5% and the viability, T/C (second compound 0.316 µM, first compound 0.00999 µM) was 95.3%. It also gave a viability, T/C [13] of 104%, a viability, T/C (second compound 0.316 µM, first compound 0.0999 µM) of 106% and a viability, T/C [15] of 96.5%. It also gave a viability, T/C (second compound 1 µM, first compound 0.000999 µM) of 108%, a viability, T/C (second compound 1 µM, first compound 0.00316 µM) of 91.7% and a viability, T/C (second compound 1 µM, first compound 0.00999 µM) of 114%. The viability, T/C [19] was 104%, the viability, T/C (second compound 1 µM, first compound 0.0999 µM) was 113% and the viability, T/C [21] was 93.2%. The viability, T/C (second compound 3.16 µM, first compound 0.000999 µM) was 107%, the viability, T/C (second compound 3.16 µM, first compound 0.00316 µM) was 80.9% and the viability, T/C (second compound 3.16 µM, first compound 0.00999 µM) was 98.6%. It also gave a viability, T/C [25] of 95.7%, a viability, T/C (second compound 3.16 µM, first compound 0.0999 µM) of 89.3% and a viability, T/C [27] of 86.8%. It also gave a viability, T/C (second compound 10 µM, first compound 0.000999 µM) of 90.1%, a viability, T/C (second compound 10 µM, first compound 0.00316 µM) of 81.4% and a viability, T/C (second compound 10 µM, first compound 0.00999 µM) of 79.6%. The viability, T/C [31] was 97.7%, the viability, T/C (second compound 10 µM, first compound 0.0999 µM) was 99.5% and the viability, T/C [33] was 78.8%.
